Literature values in US20050282773A1, “Modified polysaccharides in combination with anti-cancer drugs for enhanced treatment of cancer” (Pro-Pharmaceuticals, Inc., priority 2004, published 2005).

Legend:
B16 melanoma cells = details: in vivo
L-1 sarcoma cells = details: in vivo

| Compound | metastasis of B16 melanoma cells (B16 melanoma cells) | liver metastasis of L-1 sarcoma cells (L-1 sarcoma cells) |
| --- | --- | --- |
| CO[C@H]1O[C@H](CO)[C@@H](O[C@@H]2O[C@H](CO)[C@H](O)[C@H](O)[C@H]2O)[C@H](O)[C@H]1O [methyl-α-D-lactoside] | inhibit |  |
| CC(=O)N[C@H]1[C@H](O[C@H]2[C@@H](O)[C@@H](CO)O[C@@H](O[C@H]3[C@H](O)[C@@H](O)C(O)O[C@@H]3CO)[C@@H]2O)O[C@H](CO)[C@@H](O)[C@@H]1O[C@@H]1O[C@H](CO)[C@H](O)[C@H](O)[C@H]1O (stereo partly shown) [lacto-N-tetrose] | inhibit |  |
| arabinogalactose |  | inhibited |
| O=C[C@H](O)[C@@H](O)[C@@H](O)[C@H](O)CO [D-galactose] |  | inhibited |
